Test results reported in the CheMixHub ionic liquid set.

Experiment: xn = mol fraction of the nth substance listed

CC(C)(C)O + CCCC[n+]1ccn(C)c1.O=S(=O)([N-]S(=O)(=O)C(F)(F)F)C(F)(F)F
298 K, 101 kPa
Conditions | electrical conductivity [S/m] | viscosity [mPa·s]
x1 = 0.6042 | 0.52 | –
x1 = 0.653 | 0.504 | –
x1 = 0.8516 | – | 9.27
x2 = 0.0182 | – | 4.38

CC(C)=O + CCCC[n+]1ccn(C)c1.O=S(=O)([N-]S(=O)(=O)C(F)(F)F)C(F)(F)F
296.35 K, 100 kPa, frequency 0.01 MHz
Conditions | electrical conductivity [S/m]
x2 = 0.01616 | 1.1
x2 = 0.0257 | 2.71
x2 = 0.0419 | 4.22
x2 = 0.07374 | 5.7
x2 = 0.1478 | 4.72

CCCCCCCCCO + CCCC[n+]1ccn(C)c1.O=S(=O)([N-]S(=O)(=O)C(F)(F)F)C(F)(F)F
Conditions | viscosity [mPa·s]
298 K, 100 kPa, x2 = 0.9008 | 41.28

C[C@@H](O)[C@H](N)C(=O)O + CCCC[n+]1ccn(C)c1.[Br-] + O
viscosity [mPa·s], 101.3 kPa
Conditions | x1 = 0.0003603, x2 = 0 | x1 = 0.0007221, x2 = 0 | x1 = 0.001078, x2 = 0 | x1 = 0.001438, x2 = 0 | x1 = 0.001779, x2 = 0 | x1 = 0.002158, x2 = 0 | x1 = 0.002516, x2 = 0
293.15 K | 1.009 | 1.016 | 1.023 | 1.03 | 1.037 | 1.044 | 1.051
298.15 K | 0.897 | 0.904 | 0.911 | 0.918 | 0.925 | 0.933 | 0.94
303.15 K | 0.804 | 0.811 | 0.818 | 0.825 | 0.833 | 0.84 | 0.847
308.15 K | 0.727 | 0.734 | 0.741 | 0.748 | 0.755 | 0.763 | 0.77
313.15 K | 0.661 | 0.668 | 0.675 | 0.682 | 0.689 | 0.697 | 0.704

F[B-](F)(F)F.[Li+] + CCCC[n+]1ccn(C)c1.[I-]
electrical conductivity [S/m], 101 kPa
Conditions | 298.15 K | 308.15 K | 323.15 K
x1 = 0.1 | – | 0.0454 | –
x1 = 0.2 | 0.0449 | – | 0.079

CCCCCC[n+]1ccn(C)c1.F[B-](F)(F)F + CCCN
Conditions | viscosity [mPa·s]
298.15 K, 101 kPa, x2 = 0 | 171.8

COP(=O)([O-])OC.Cn1cc[n+](C)c1 + CCCO
101 kPa
Conditions | viscosity [mPa·s]
293.15 K, x2 = 0.3018 | 116.9
298.15 K, x2 = 0 | 291
303.15 K, x2 = 0.1993 | 115.9
303.15 K, x2 = 0.5002 | 34.18
303.15 K, x2 = 0.5996 | 21.48
308.15 K, x2 = 0.1993 | 90.1
313.15 K, x2 = 0.5996 | 15.82
318.15 K, x2 = 0.098 | 74.8
318.15 K, x2 = 0.4 | 30.15
318.15 K, x2 = 0.5002 | 20.5
323.15 K, x2 = 0.3018 | 33.41
323.15 K, x2 = 0.5996 | 12.11
323.15 K, x2 = 0.799 | 4.88

COP(=O)([O-])OC.Cn1cc[n+](C)c1 + CCCO + O
100 kPa
Conditions | viscosity [mPa·s]
298.15 K, x2 = 0.249, x3 = 0.2451 | 90
323.15 K, x2 = 0.15, x3 = 0.1498 | 81
333.15 K, x2 = 0.1, x3 = 0.0998 | 85

CC(=O)[O-].CCCC[N+](CCCC)(CCCC)CCCC + CCCOCC(C)O
electrical conductivity [S/m], 101 kPa
Conditions | x1 = 0.006949 | x1 = 0.008744 | x1 = 0.02598 | x1 = 0.03298 | x1 = 0.06584 | x1 = 0.09163 | x1 = 0.1232 | x1 = 0.1599 | x1 = 0.2312
248.15 K | 0.000652 | 0.000811 | 0.00218 | 0.00267 | 0.00439 | 0.00514 | 0.00547 | 0.00531 | 0.0042
258.15 K | 0.00115 | 0.00143 | 0.00399 | 0.00493 | 0.00847 | 0.01022 | 0.01125 | 0.01128 | 0.00942
268.15 K | 0.00182 | 0.00229 | 0.00661 | 0.00825 | 0.01473 | 0.01821 | 0.02062 | 0.02133 | 0.01883
278.15 K | 0.00269 | 0.0034 | 0.01016 | 0.01277 | 0.02353 | 0.02971 | 0.03448 | 0.03666 | 0.03401
288.15 K | 0.00374 | 0.00478 | 0.01461 | 0.01849 | 0.03502 | 0.04505 | 0.05341 | 0.05816 | 0.05632
298.15 K | 0.00498 | 0.00635 | 0.01995 | 0.02547 | 0.04947 | 0.06468 | 0.07808 | 0.08671 | 0.08711
308.15 K | 0.00637 | 0.00816 | 0.02625 | 0.03367 | 0.06676 | 0.08851 | 0.1086 | 0.1227 | 0.1274
313.15 K | 0.0071 | 0.00913 | 0.02965 | 0.03815 | 0.07641 | 0.1011 | 0.126 | 0.1436 | 0.1513

COP(=O)([O-])OC.Cn1cc[n+](C)c1 + CCO
Conditions | viscosity [mPa·s]
293.15 K, 100 kPa, x1 = 0.1005 | 3.24
293.15 K, 100 kPa, x1 = 0.797 | 160.9
293.15 K, 101 kPa, x2 = 0.5028 | 37.73
293.15 K, 101 kPa, x2 = 0.6 | 24.37
293.15 K, 101 kPa, x2 = 0.7999 | 6.29
293.15 K, 101 kPa, x2 = 0.9 | 3.118
298.15 K, 100 kPa, x1 = 0.7009 | 84.1
298.15 K, 100 kPa, x1 = 0.8995 | 169.2
298.15 K, 101 kPa, x1 = 0.2011 | 5.8
298.15 K, 101 kPa, x1 = 0.5056 | 36.2
298.15 K, 101 kPa, x1 = 0.8017 | 132.7
298.15 K, 101 kPa, x2 = 0.4074 | 60.9
298.15 K, 101 kPa, x2 = 0.6 | 21.18
303.15 K, 100 kPa, x1 = 0.1005 | 2.62
303.15 K, 100 kPa, x1 = 0.2006 | 5.25
303.15 K, 100 kPa, x1 = 0.3005 | 9.92
303.15 K, 101 kPa, x2 = 0.0999 | 173.7
303.15 K, 101 kPa, x2 = 0.7999 | 5.01
308.15 K, 100 kPa, x1 = 0.8995 | 94.2
308.15 K, 100 kPa, x1 = 1 | 123.3
308.15 K, 101 kPa, x2 = 0.5028 | 21.92
308.15 K, 101 kPa, x2 = 0.6992 | 9.29
313.15 K, 100 kPa, x1 = 0.4031 | 12.72
313.15 K, 100 kPa, x1 = 0.797 | 54.3
313.15 K, 101 kPa, x1 = 0.2011 | 4.2
313.15 K, 101 kPa, x1 = 0.5056 | 21.2
313.15 K, 101 kPa, x1 = 0.8017 | 60.8
318.15 K, 100 kPa, x1 = 0.3005 | 7.04
318.15 K, 100 kPa, x1 = 0.7009 | 33.29
318.15 K, 100 kPa, x1 = 1 | 72.2
318.15 K, 101 kPa, x2 = 0 | 92.8
318.15 K, 101 kPa, x2 = 0.7999 | 3.702
323.15 K, 100 kPa, x1 = 0.3005 | 6.41
323.15 K, 100 kPa, x1 = 0.7009 | 27.5
323.15 K, 100 kPa, x1 = 0.797 | 35.24
323.15 K, 100 kPa, x1 = 0.8995 | 45.63
323.15 K, 101 kPa, x2 = 0.0999 | 63.7
323.15 K, 101 kPa, x2 = 0.9 | 1.819
328.15 K, 100 kPa, x1 = 0.4996 | 12.51
328.15 K, 100 kPa, x1 = 0.797 | 29.03
333.15 K, 100 kPa, x1 = 0.1005 | 1.36
333.15 K, 100 kPa, x1 = 0.3005 | 5.46
333.15 K, 100 kPa, x1 = 0.7009 | 19.59
333.15 K, 100 kPa, x1 = 0.8995 | 30.39
333.15 K, 101 kPa, x1 = 0.2011 | 2.9
333.15 K, 101 kPa, x1 = 0.5056 | 11.9
333.15 K, 101 kPa, x1 = 0.8017 | 28
338.15 K, 100 kPa, x1 = 0.4996 | 9.9

CCC[NH3+].O=[N+]([O-])[O-] + CC[NH3+].O=[N+]([O-])[O-]
101 kPa, frequency 0.00293 MHz, x2 = 0.5
Conditions | electrical conductivity [S/m]
293.15 K | 1.2
303.15 K | 1.67
318.15 K | 2.53

101 kPa, x2 = 0.5
Conditions | viscosity [mPa·s]
293.15 K | 64.5
303.15 K | 44.1
318.15 K | 27.1
353.15 K | 11.5
